Reference: article PMC4920026 (Scientific Reports, 2016)
Read-outs that look alike come from different tables or passages of the source.

Target: huPrP(23–230) (Homo sapiens, UniProt P04156)
Assay type: binding
Conditions: for k2 (microscopic association constant of xenon to the open state): k1 = 0, pH 4.5

[Xe] [xenon]
ΔG24 (free energy of xenon binding to the open state) (binding site A1, 293 K): -19.7 ± 0.3 kJ/M | Kd (binding site A1, Kapp = 1/k2 + k3/k2, 293 K, read-out: Kapp Xe (apparent xenon dissociation constant)): 12.5 mM | k2 (microscopic association constant of xenon to the open state) (binding site A1, 293 K): 3.2 ± 0.4 mM⁻¹ | ΔG24 (free energy of xenon binding to the open state) (binding site A2, 293 K): -14.91 ± 0.03 kJ/M | Kd (binding site A2, Kapp = 1/k2 + k3/k2, 293 K, read-out: Kapp Xe (apparent xenon dissociation constant)): 14.6 mM | k2 (microscopic association constant of xenon to the open state) (binding site A2, 293 K): 0.46 ± 0.01 mM⁻¹ | ΔG24 (free energy of xenon binding to the open state) (binding site B, 293 K): -20.5 ± 0.2 kJ/M | Kd (binding site B, Kapp = 1/k2 + k3/k2, 293 K, read-out: Kapp Xe (apparent xenon dissociation constant)): 9.1 mM | k2 (microscopic association constant of xenon to the open state) (binding site B, 293 K, k3 set to 39): 4.5 ± 0.4 mM⁻¹ | ΔG24 (free energy of xenon binding to the open state) (binding site C, 293 K): -11.5 ± 0.7 kJ/M | Kd (binding site C, Kapp = 1/k2 + k3/k2, 293 K, read-out: Kapp Xe (apparent xenon dissociation constant)): 11.4 mM | k2 (microscopic association constant of xenon to the open state) (binding site C, 293 K): 0.11 ± 0.03 mM⁻¹ | ΔG24 (free energy of xenon binding to the open state) (binding site D, 293 K): -14.24 ± 0.02 kJ/M | Kd (binding site D, Kapp = 1/k2 + k3/k2, 293 K, read-out: Kapp Xe (apparent xenon dissociation constant)): 11.8 mM | k2 (microscopic association constant of xenon to the open state) (binding site D, 293 K): 0.34 ± 0.02 mM⁻¹ | apparent xenon affinities k2/(1 + k3) (order of magnitude, over all cavities): ~0.1 mM⁻¹ | Kd (order of magnitude, over all cavities, read-out: apparent dissociation constants): ~10 mM
